Results reported in patent US9121026B2 (priority 2004, dated 2015).
Several values for one entry are separate records, joined by “and”; a condition that tells them apart may be missing. Equal values may be shown once.

Key:
Type in all cases: cell-based, Saccharomyces cerevisiae
[1] = tested on: RE700A e PCUP-HXT7 (ECFP); test: Growth inhibition of ECFP by 2-DG; details: 20 h 28° C., maltose, in percent of growth of RE700A
Experimental: (A) RE700A, ECFP and ET[PDR] were incubated 20 h at 28° C. with maltose (2% (w/v)) as the sole carbon source in the presence of the indicated 2-DG concentrations. The optical density was measured at 600 nm every 15 minutes and the integral under the growth curve was calculated. Inhibition of growth of ECFP and ET[PDR] is shown in percent of growth of RE700A. Growth of ECFP was inhibited by 39% at 0.005% (w/v) 2-DG, by 78% at 0.01% (w/v) 2-DG, by 91% at 0.03% (w/v) 2-DG and by 93% at 0.05% (w/v) 2-DG. Growth of ET[PDR] was inhibited by 52% at 0.005% (w/v) 2-DG, by 87% at 0.01% (w/v) 2-DG, by 94% at 0.03% (w/v) 2-DG and by 96% at 0.05% (w/v) 2-DG.
(§1) Strain growth: The growth of the strains in liquid medium was determined by measuring the optical density at 600 nm. To obtain growth curves, measurements were performed every 15 min. Alternatively, start and endpoint (after 12-16 h) measurements were carried out.

[2] = tested on: RE700A tok1::PPDR5long-HXT7; test: Growth of RE700A tok1::PPDR5long-HXT7 in the presence of 2-DG; details: RE700A tok1::PPDR5long-HXT7, liquid media, 20 h 28° C.
Experimental: (B) Relative growth of RE700A tok1::PPDR5long-HXT7, RE700A Δpdr1 tok1::PPDR5long-HXT7, RE700A Δpdr3 tok1::PPDR5long-HXT7 and RE700A Δpdr1,3 tok1::PPDR5long-HXT7 in the presence of 2-DG. Cells were incubated for 20 h at 28° C. with 2-DG at different concentrations. […] The standard error of the mean (n=5) is indicated.

[3] = tested on: RE700A Δpdr1 tok1::PPDR5-HXT7; test: Growth inhibition of RE700A Δpdr1 tok1::PPDR5-HXT7 by 2-DG; details: RE700A Δpdr1 tok1::PPDR5-HXT7, maltose, 20 h 28° C.
Experimental: (§2) (A) Growth inhibition of RE700A i PPDR5-HXT7 (IT[PDR]), RE700A Δpdr1 tok1::PPDR5-HXT7, RE700A Δpdr3 tok1::PPDR5-HXT7 and RE700A Δpdr1,pdr3 tok1::PPDR5-HXT7 at increasing 2-DG concentrations. RE700A i PPDR5-HXT7 (IT[PDR]), RE700A Δpdr1 tok1::PPDR5-HXT7, RE700A Δpdr3 tok1::PPDR5-HXT7 and RE700A Δpdr1,pdr3 tok1::PPDR5-HXT7 were incubated 20 h at 28° C. with Maltose (2% (w/v)) as the sole carbon source and 2-DG concentrations as indicated. The optical density was measured at 600 nm every 15 minutes and the integral under the growth curve was calculated. Inhibition of growth caused by 2-DG is shown in percent. The growth of the strain RE700A tok1::PPDR5-HXT7 (IT[PDR]) was inhibited by 50% at 0.02% (w/v) 2-DG. Growth of the strains RE700A Δpdr1 tok1::PPDR5-HXT7 and RE700A Δpdr3 tok1::PPDR5-HXT7 was inhibited by 50% at 0.026% (w/v) 2-DG.
(§3) All strains expressing HXT7 were tested for sensitivity to 2-DG. The strains expressing GFP under the control of PPDR5 were additionally analysed for GFP fluorescence in comparison to RE700Ae PPDR5-GFP (strain CQ[PDR]).

[4] = tested on: RE700A i PPDR5-HXT7 (IT[PDR]); test: Growth inhibition of IT[PDR] by 2-DG; details: 20 h 28° C., maltose; for Inhibition of growth: IT[PDR], in percent of growth of RE700A
Experimental: (B) RE700A, ICFP and IT[PDR] were incubated 20 h at 28° C. with maltose (2% (w/v)) as the sole carbon source and the indicated 2-DG concentrations. The optical density was measured at 600 nm every 15 minutes and the integral under the growth curve is calculated. Inhibition of growth of ICFP and IT[PDR] is shown in percent of growth of RE700A. Growth of ICFP was inhibited by 15% at 0.01% (w/v) 2-DG, by 74% at 0.03% (w/v) 2-DG, by 80% at 0.05% (w/v) 2-DG and by 83% at 0.1% (w/v) 2-DG. Growth of IT[PDR] was inhibited by 21% at 0.01% (w/v) 2-DG, by 79% at 0.03% (w/v) 2-DG, by 88% at 0.05% (w/v) 2-DG and by 96% in 0.1% (w/v) 2-DG.
as §2, §1

[5] = tested on: RE700A i PCDR2-HXT7 (IT[CDR2]); test: Growth inhibition of IT[CDR2] by 2-DG; details: 20 h 28° C., maltose, regarding growth in the absence of 2-DG
Experimental: FIG. 8: Growth inhibition of RE700A and IT[CDR2] by 2-DG. RE700A and IT[CDR2] were incubated for 20 h at 28° C. with maltose (2% (w/v)) as the sole carbon source and increasing 2-DG concentrations as indicated. The optical density was measured at 600 nm every 15 minutes and the integral under the growth curve was calculated. Inhibition of growth is shown in percent regarding growth in the absence of 2-DG. Growth of IT[CDR2] was inhibited by 30% at a 2-DG concentration of 0.1% (w/v), by 79% at a 2-DG concentration of 1% (w/v), by 89% at a 2-DG concentration of 2% (w/v), by 91% at a 2-DG concentration of 3% (w/v).
(4) Integrated screening system for inhibitors of PCDR2: S. cerevisiae strain RE700A was genetically modified as described in Examples 1 and 2 to yield strain IT[CDR2], chromosomally expressing HXT7 under the control of the promoter of CDR2 (PCDR2) (for the complete genotype see Table 1). The inhibition of growth of IT[CDR2] by 2-DG was tested. The growth of this strain was inhibited by 50% at a 2-DG concentration of 1% (w/v) and by 80% at a 2-DG concentration of 2% (w/v) (FIG. 8).

[6] = tested on: RE700A Δpdr3 tok1::PPDR5-HXT7; test: Growth inhibition of RE700A Δpdr3 tok1::PPDR5-HXT7 by 2-DG; details: RE700A Δpdr3 tok1::PPDR5-HXT7, maltose, 20 h 28° C.
Experimental: as §2, §3

O=CC[C@@H](O)[C@H](O)[C@H](O)CO [2-DG, 2-deoxy-glucose]
Inhibition of growth ([1]; 0.005% (w/v) 2-DG): 39% | Inhibition of growth ([1]; 0.01% (w/v) 2-DG): 78% | Inhibition of growth ([1]; 0.03% (w/v) 2-DG): 91% | Inhibition of growth ([1]; 0.05% (w/v) 2-DG): 93% | 2-DG concentration for 50% growth inhibition [2]: 0,025 % (w/v) | 2-DG concentration for 50% growth inhibition [3]: 0.026 % (w/v) | Inhibition of growth ([4]; 0.01% (w/v) 2-DG): 21% | Inhibition of growth ([4]; 0.03% (w/v) 2-DG): 79% | Inhibition of growth ([4]; 0.05% (w/v) 2-DG): 88% | Inhibition of growth ([4]; 0.1% (w/v) 2-DG): 96% | 2-DG concentration for 50% growth inhibition ([4]; RE700A tok1::PPDR5-HXT7 (IT[PDR]), liquid media): 0.021 % (w/v) and 0.02 % (w/v) | Inhibition of growth ([5]; 0.1% (w/v) 2-DG): 30% | Inhibition of growth ([5]; 3% (w/v) 2-DG): 91% | 2-DG concentration for 50% growth inhibition [6]: 0.026 % (w/v)
